# Laboratory results as given in BindingDB's records for doi:10.1124/jpet.302.1.374 (University of Rochester, 2002).
# Experiments:
# [1] = biological target: Kappa-type opioid receptor (Cavia porcellus, UniProt P41144)
# [2] = biological target: Delta-type opioid receptor (Sus scrofa, UniProt P79291)
# Delta-type opioid receptor, sequence (P79291 whole entry): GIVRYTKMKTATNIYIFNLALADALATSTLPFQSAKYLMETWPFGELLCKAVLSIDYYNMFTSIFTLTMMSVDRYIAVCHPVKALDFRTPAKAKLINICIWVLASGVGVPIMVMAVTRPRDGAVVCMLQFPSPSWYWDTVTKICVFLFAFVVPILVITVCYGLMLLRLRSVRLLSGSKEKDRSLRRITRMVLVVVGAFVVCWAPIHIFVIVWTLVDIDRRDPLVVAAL
# Kappa-type opioid receptor, sequence (P41144 whole entry): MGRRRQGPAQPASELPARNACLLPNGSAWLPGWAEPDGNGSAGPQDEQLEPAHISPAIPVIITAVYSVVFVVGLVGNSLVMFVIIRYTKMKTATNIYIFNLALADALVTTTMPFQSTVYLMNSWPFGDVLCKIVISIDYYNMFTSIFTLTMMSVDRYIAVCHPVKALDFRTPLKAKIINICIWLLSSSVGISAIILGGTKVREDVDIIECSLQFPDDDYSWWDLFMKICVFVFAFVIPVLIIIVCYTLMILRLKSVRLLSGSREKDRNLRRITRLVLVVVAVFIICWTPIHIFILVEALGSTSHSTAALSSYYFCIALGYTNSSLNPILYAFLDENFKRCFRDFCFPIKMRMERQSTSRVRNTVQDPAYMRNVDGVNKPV
structure (smiles),measurement,setting,value
"C[C@@H]1[C@@H]2Cc3ccc(O)cc3[C@@]1(C)CCN2CC1CC1 [(SSS)-12-Cyclopropylmethyl-13-methyl-12-aza-tricyclo[9.1.1.0*3,8*]trideca-3(8),4,6-trien-6-ol(cyclazocine)]",Ki,[1],0.18 nM
same,Ki,[2],1.1 nM
